# Test results as given in publication PMC10459693, “Toward Stability Enhancement of NTS1R-Targeted Radioligands: Structural Interventions on [^99mTc]Tc-DT1” (Pharmaceutics, 2023).
# Like-named read-outs stand apart in the source and are kept apart here. Peptide text beside a SMILES is read from it. * marks the point of attachment. Palmitoyl = CCCCCCCCCCCCCCCC(=O)*; X1 = NCCNCC(CNCCN)C(=O)*
# Experiments:
# [1] = system: AsPC-1 cells; assay: NTS1R-specific uptake and internalization in AsPC-1 cells; assay type: cell-based, human
# Experimental: The NTS1R-specific internalization of [^99mTc]Tc-DT1/7/8/9 radioligands was compared in AsPC-1 cells. The cells were seeded in 6-well plates (1 × 10^6 cells per well) and left to grow overnight. The following day, the medium was aspirated, and the cells were washed twice with internalization medium (2 mL IM: RPMI supplemented with 1% v/v FBS) on ice. They were placed on the bench, and warm IM (1200 μL 37 °C) was added per well, followed by radioligand solution (150 μL, 250 fmol) and either IM (150 μL total: T; upper wells) or NT (10^−5 M in IM, non-specific: NS; lower wells). The plates were placed in the Incubator-Orbital Shaker at 37 °C for 1 h, and the incubation was interrupted by placing the plates on ice. The supernatant was collected in RIA tubes, and the cells were washed with 1 mL phosphate-buffered saline (PBS, pH 7.4, 4 °C) containing 0.5% w/v BSA, and the washing was also collected in the same RIA tube. Cells were treated twice for 5 min with glycine buffer (600 μL, 50 mM glycine, 0.1 M NaCl, pH 2.8), and supernatants were collected (membrane bound fraction, MB). The cells were washed again with 1 mL ice-cold PBS-BSA buffer, which was discarded. Finally, cells were lysed (2 × 600 μL 1 M NaOH), and the lysates were collected (internalized fraction, IF). Sample radioactivity was measured on the γ-counter. Specific values for MB and IF were acquired by subtracting NS values from T ones. Results are expressed as mean percentage of added radioactivity ± sd, n = 3. In addition, time-dependent internalization in AsPC-1 cells was directly compared for [^99mTc]Tc-DT1/9 by incubation at 37 °C for 15 min, 30 min, 1 h, and 2 h, following the above-described protocol for each time point.
# [2] = Biodistribution in SCID mice bearing AsPC-1 xenografts; assay type: in vivo; details: male, mouse, iv, total radioactivity; for tissue uptake at 4 h: 4 h pi; for tissue uptake at 24 h: 24 h pi
# Experimental: Twenty male severe combined immunodeficiency (SCID) mice (23.1 ± 1.6 g body weight, six weeks of age on arrival day; NCSR “Demokritos” Animal House, Athens, Greece) were used in the biodistribution experiments. Animals were subcutaneously inoculated in their right flanks with a sterile suspension of freshly harvested AsPC-1 cells (150 μL, 5 × 10^6 cells/animal), and 3–4 weeks later, they developed well-palpable tumors at the implantation sites. During this period, mice were housed in suitable facilities under sterile conditions with 12 h day/night cycles and were provided with sterilized chow food and drinking water ad libitum. At the date of the experiment, animals were randomly divided in groups of four and received through the tail vein a bolus of [^99mTc]Tc-DT9 (100 μL, 3 pmol in vehicle: PBS/EtOH 9/1 v/v with the addition of 0.1% Tween-80) plus vehicle (100 μL; controls at 4 and 24 h pi) or plus Lis (100 μg in 100 μL vehicle); the latter groups had additionally received per os 30 min in advance Entresto® (200 μL, 12 mg; Entresto®+Lis groups at 4 and 24 h pi). A further 4 h group of animals was treated with Entresto®, and 30 min later, mice were co-injected with excess NT and Lis (100 μg NT and 100 μg Lis in 100 μL vehicle—NTS1R block). At the predetermined time intervals, mice were euthanized and weighted, and their blood, organs, and tissue samples of choice as well as the implanted tumors were collected and weighted. Sample radioactivity was measured on the γ-counter together with proper standards of the injected dose. Results were calculated as percentage of injected activity per gram tissue (%IA/g) and provided as mean %IA/g values ± sd. For comparisons, a two-way ANOVA with Tukey’s post hoc analysis was adopted (PRISM^TM 6.0 GraphPad Software, San Diego, CA, USA). p-values < 0.05 were considered statistically significant.
# [3] = AsPC-1 tumor, 3 pmol, Controls, read-out: uptake in AsPC-1 Tumor
# [4] = AsPC-1 tumor, Entresto+Lis, read-out: uptake in AsPC-1 Tumor
# [5] = blood, 3 pmol, Controls, read-out: uptake in Blood
# [6] = blood, Entresto+Lis, read-out: uptake in Blood
# [7] = heart, 3 pmol, Controls, read-out: uptake in Heart
# [8] = heart, Entresto+Lis, read-out: uptake in Heart
# [9] = intestines, 3 pmol, Controls, read-out: uptake in Intestines
# [10] = intestines, Entresto+Lis, read-out: uptake in Intestines
# [11] = kidneys, 3 pmol, Controls, read-out: uptake in Kidneys
# [12] = kidneys, Entresto+Lis, read-out: uptake in Kidneys
# [13] = liver, 3 pmol, Controls, read-out: uptake in Liver
# [14] = liver, Entresto+Lis, read-out: uptake in Liver
# [15] = lungs, 3 pmol, Controls, read-out: uptake in Lungs
# [16] = lungs, Entresto+Lis, read-out: uptake in Lungs
# [17] = muscle, 3 pmol, Controls, read-out: uptake in Muscle
# [18] = muscle, Entresto+Lis, read-out: uptake in Muscle
# [19] = pancreas, 3 pmol, Controls, read-out: uptake in Pancreas
# [20] = pancreas, Entresto+Lis, read-out: uptake in Pancreas
# [21] = spleen, 3 pmol, Controls, read-out: uptake in Spleen
# [22] = spleen, Entresto+Lis, read-out: uptake in Spleen
# [23] = stomach, 3 pmol, Controls, read-out: uptake in Stomach
# [24] = stomach, Entresto+Lis, read-out: uptake in Stomach
smiles,measurement,setting,value
"CCCCCCCCCCCCCCCC(=O)NCCCC[C@H](NC(=O)C(CNCCN)CNCCN)C(=O)N[C@@H](CCCNC(=N)N)C(=O)N[C@@H](CCCNC(=N)N)C(=O)N1CCC[C@H]1C(=O)N[C@@H](Cc1ccc(O)cc1)C(=O)N[C@H](C(=O)N[C@@H](CC(C)C)C(=O)O)[C@@H](C)CC [[^99mTc]Tc-DT9, metal not drawn] (X1-K(Palmitoyl)RRPYIL-OH)","internalization, specific of added radioactivity",[1]; 1 h at 37 °C,16.53 ± 1.12%
same,specific cell uptake of added radioactivity (internalized + membrane bound),[1]; 1 h at 37 °C,16.76 ± 1.16%
same,specific uptake of added radioactivity (time-dependent internalization),[1]; 2 h at 37 °C,21.5 ± 1.0%
same,tissue uptake at 4 h,[2]; [3],6.15 ± 0.92 %ID/g
same,tissue uptake at 24 h,[2]; [3],3.32 ± 0.35 %ID/g
same,tissue uptake at 4 h,"[2]; AsPC-1 tumor, Block (Entresto+Lis plus excess NT), read-out: uptake in AsPC-1 Tumor",3.68 ± 0.92 %ID/g
same,tissue uptake at 4 h,[2]; [4],5.24 ± 0.27 %ID/g
same,tissue uptake at 24 h,[2]; [4],2.84 ± 0.43 %ID/g
same,tissue uptake at 4 h,[2]; [5],4.63 ± 0.55 %ID/g
same,tissue uptake at 4 h,"[2]; blood, 3 pmol, all animal groups, read-out: radioactivity levels in the blood",> 4 %ID/g
same,tissue uptake at 24 h,[2]; [5],0.68 ± 0.18 %ID/g
same,tissue uptake at 4 h,"[2]; blood, Block (Entresto+Lis plus excess NT), read-out: uptake in Blood",4.25 ± 0.37 %ID/g
same,tissue uptake at 4 h,[2]; [6],4.32 ± 0.42 %ID/g
same,tissue uptake at 24 h,[2]; [6],0.7 ± 0.06 %ID/g
same,tissue uptake at 4 h,[2]; [7],3.12 ± 0.43 %ID/g
same,tissue uptake at 24 h,[2]; [7],0.64 ± 0.11 %ID/g
same,tissue uptake at 4 h,"[2]; heart, Block (Entresto+Lis plus excess NT), read-out: uptake in Heart",2.79 ± 0.47 %ID/g
same,tissue uptake at 4 h,[2]; [8],2.85 ± 2.48 %ID/g
same,tissue uptake at 24 h,[2]; [8],0.71 ± 0.06 %ID/g
same,tissue uptake at 4 h,[2]; [9],13 ± 4.6 %ID/g
same,tissue uptake at 24 h,[2]; [9],4.26 ± 0.61 %ID/g
same,tissue uptake at 4 h,"[2]; intestines, Block (Entresto+Lis plus excess NT), read-out: uptake in Intestines",6.27 ± 0.72 %ID/g
same,tissue uptake at 4 h,[2]; [10],7.9 ± 0.88 %ID/g
same,tissue uptake at 24 h,[2]; [10],5.37 ± 1.61 %ID/g
same,tissue uptake at 4 h,[2]; [11],9.53 ± 1.18 %ID/g
same,tissue uptake at 24 h,[2]; [11],3.81 ± 0.54 %ID/g
same,tissue uptake at 4 h,"[2]; kidneys, Block (Entresto+Lis plus excess NT), read-out: uptake in Kidneys",8.56 ± 0.87 %ID/g
same,tissue uptake at 4 h,[2]; [12],9.15 ± 0.62 %ID/g
same,tissue uptake at 24 h,[2]; [12],4.63 ± 0.15 %ID/g
same,tissue uptake at 4 h,[2]; [13],29.6 ± 3.77 %ID/g
same,tissue uptake at 24 h,[2]; [13],12.9 ± 1.66 %ID/g
same,tissue uptake at 4 h,"[2]; liver, Block (Entresto+Lis plus excess NT), read-out: uptake in Liver",30.9 ± 4.25 %ID/g
same,tissue uptake at 4 h,[2]; [14],28.4 ± 2.48 %ID/g
same,tissue uptake at 24 h,[2]; [14],17 ± 0.94 %ID/g
same,tissue uptake at 4 h,[2]; [15],8.8 ± 1.42 %ID/g
same,tissue uptake at 24 h,[2]; [15],3.42 ± 0.67 %ID/g
same,tissue uptake at 4 h,"[2]; lungs, Block (Entresto+Lis plus excess NT), read-out: uptake in Lungs",8.46 ± 1.26 %ID/g
same,tissue uptake at 4 h,[2]; [16],7.61 ± 0.64 %ID/g
same,tissue uptake at 24 h,[2]; [16],3.62 ± 0.94 %ID/g
same,tissue uptake at 4 h,[2]; [17],0.93 ± 0.13 %ID/g
same,tissue uptake at 24 h,[2]; [17],0.22 ± 0.02 %ID/g
same,tissue uptake at 4 h,"[2]; muscle, Block (Entresto+Lis plus excess NT), read-out: uptake in Muscle",0.82 ± 0.11 %ID/g
same,tissue uptake at 4 h,[2]; [18],0.81 ± 0.04 %ID/g
same,tissue uptake at 24 h,[2]; [18],0.24 ± 0.01 %ID/g
same,tissue uptake at 4 h,[2]; [19],2.1 ± 0.3 %ID/g
same,tissue uptake at 24 h,[2]; [19],0.75 ± 0.17 %ID/g
same,tissue uptake at 4 h,"[2]; pancreas, Block (Entresto+Lis plus excess NT), read-out: uptake in Pancreas",1.84 ± 0.41 %ID/g
same,tissue uptake at 4 h,[2]; [20],1.85 ± 0.18 %ID/g
same,tissue uptake at 24 h,[2]; [20],0.8 ± 0.07 %ID/g
same,tissue uptake at 4 h,[2]; [21],6.82 ± 1.11 %ID/g
same,tissue uptake at 24 h,[2]; [21],3.42 ± 0.54 %ID/g
same,tissue uptake at 4 h,"[2]; spleen, Block (Entresto+Lis plus excess NT), read-out: uptake in Spleen",6.18 ± 1.37 %ID/g
same,tissue uptake at 4 h,[2]; [22],5.47 ± 0.47 %ID/g
same,tissue uptake at 24 h,[2]; [22],4.47 ± 0.83 %ID/g
same,tissue uptake at 4 h,[2]; [23],3.09 ± 1.06 %ID/g
same,tissue uptake at 24 h,[2]; [23],1.73 ± 0.5 %ID/g
same,tissue uptake at 4 h,"[2]; stomach, Block (Entresto+Lis plus excess NT), read-out: uptake in Stomach",2.06 ± 0.47 %ID/g
same,tissue uptake at 4 h,[2]; [24],2.27 ± 0.38 %ID/g
same,tissue uptake at 24 h,[2]; [24],1.56 ± 0.31 %ID/g
